Tested on: 922993-354-T-J3-PDC complex spheroid viability
Test: Anticancer human tumor 922993-354-T-J3-PDC patient-derived endometrial carcinoma cell line growth inhibition [POLQ]
Conditions: for IC50: curve of first compound; for viability, T/C: stronger effect = lower value
Outline: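 Patient-derived tumour cells were co-cultured with HUVEC and mesenchymal stem cells as multicellular spheroids at 37 °C. They were treated with POLQ inhibitors (novobiocin, ART-558, RP6685) alone or combined with other agents. Top concentrations were at or near clinical Cmax (otherwise 10 microM; SN-38 at 1 microM), decreasing in half-log steps.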

[1] = second compound 0.0316 µM, first compound 0.00316 µM
[2] = second compound 0.0316 µM, first compound 0.01 µM
[3] = second compound 0.0316 µM, first compound 0.0316 µM
[4] = second compound 0.0316 µM, first compound 0.1 µM
[5] = second compound 0.0316 µM, first compound 0.316 µM
[6] = second compound 0.0316 µM, first compound 1 µM
[7] = second compound 0.1 µM, first compound 0.00316 µM
[8] = second compound 0.1 µM, first compound 0.01 µM
[9] = second compound 0.1 µM, first compound 0.0316 µM
[10] = second compound 0.1 µM, first compound 0.1 µM
[11] = second compound 0.1 µM, first compound 0.316 µM
[12] = second compound 0.1 µM, first compound 1 µM
[13] = second compound 0.316 µM, first compound 0.00316 µM
[14] = second compound 0.316 µM, first compound 0.01 µM
[15] = second compound 0.316 µM, first compound 0.0316 µM
[16] = second compound 0.316 µM, first compound 0.1 µM
[17] = second compound 0.316 µM, first compound 0.316 µM
[18] = second compound 0.316 µM, first compound 1 µM
[19] = second compound 1 µM, first compound 0.00316 µM
[20] = second compound 1 µM, first compound 0.01 µM
[21] = second compound 1 µM, first compound 0.0316 µM
[22] = second compound 1 µM, first compound 0.1 µM
[23] = second compound 1 µM, first compound 0.316 µM
[24] = second compound 1 µM, first compound 1 µM
[25] = second compound 3.16 µM, first compound 0.00316 µM
[26] = second compound 3.16 µM, first compound 0.01 µM
[27] = second compound 3.16 µM, first compound 0.0316 µM
[28] = second compound 3.16 µM, first compound 0.1 µM
[29] = second compound 3.16 µM, first compound 0.316 µM
[30] = second compound 3.16 µM, first compound 1 µM
[31] = second compound 10 µM, first compound 0.00316 µM
[32] = second compound 10 µM, first compound 0.01 µM
[33] = second compound 10 µM, first compound 0.0316 µM
[34] = second compound 10 µM, first compound 0.1 µM
[35] = second compound 10 µM, first compound 0.316 µM
[36] = second compound 10 µM, first compound 1 µM
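Note: spheroids exposed to the agents for one week.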
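Throughout, for viability, T/C: 100% = DMSO vehicle control wells.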

C=CCn1c(=O)c2cnc(Nc3ccc(N4CCN(C)CC4)cc3)nc2n1-c1cccc(C(C)(C)O)n1 + Nc1ccc(C#CCN(C(=O)Cc2ncc(C(F)(F)F)cc2C(F)(F)F)c2ccc(F)cc2)nn1
IC50 (second compound 0.0316 µM): > 1000 nM
IC50 (second compound 0.1 µM): > 1000 nM
IC50 (second compound 0.316 µM): > 1000 nM
IC50 (second compound 1 µM): > 1000 nM
IC50 (second compound 3.16 µM): > 1000 nM
IC50 (second compound 10 µM): > 1000 nM
viability, T/C [1]: 105%
viability, T/C [2]: 102%
viability, T/C [3]: 101%
viability, T/C [4]: 100%
viability, T/C [5]: 106%
viability, T/C [6]: 98.5%
viability, T/C [7]: 107%
viability, T/C [8]: 98.5%
viability, T/C [9]: 103%
viability, T/C [10]: 99.6%
viability, T/C [11]: 104%
viability, T/C [12]: 101%
viability, T/C [13]: 107%
viability, T/C [14]: 101%
viability, T/C [15]: 97.5%
viability, T/C [16]: 101%
viability, T/C [17]: 99.6%
viability, T/C [18]: 100%
viability, T/C [19]: 103%
viability, T/C [20]: 99%
viability, T/C [21]: 101%
viability, T/C [22]: 97.6%
viability, T/C [23]: 100%
viability, T/C [24]: 100%
viability, T/C [25]: 100%
viability, T/C [26]: 98.8%
viability, T/C [27]: 101%
viability, T/C [28]: 99.4%
viability, T/C [29]: 101%
viability, T/C [30]: 94.8%
viability, T/C [31]: 96.3%
viability, T/C [32]: 92.5%
viability, T/C [33]: 94.5%
viability, T/C [34]: 95.8%
viability, T/C [35]: 97%
viability, T/C [36]: 55.2%

CCCS(=O)(=O)Nc1ccc(F)c(C(=O)c2c[nH]c3ncc(-c4ccc(Cl)cc4)cc23)c1F + Nc1ccc(C#CCN(C(=O)Cc2ncc(C(F)(F)F)cc2C(F)(F)F)c2ccc(F)cc2)nn1
IC50 (second compound 0.0316 µM): > 10000 nM
IC50 (second compound 0.1 µM): > 10000 nM
IC50 (second compound 0.316 µM): > 10000 nM
IC50 (second compound 1 µM): > 10000 nM
IC50 (second compound 3.16 µM): > 10000 nM
IC50 (second compound 10 µM): > 10000 nM
viability, T/C [3]: 99.3%
viability, T/C [4]: 107%
viability, T/C [5]: 105%
viability, T/C [6]: 107%
viability, T/C (second compound 0.0316 µM, first compound 3.16 µM): 104%
viability, T/C (second compound 0.0316 µM, first compound 10 µM): 98.9%
viability, T/C [9]: 103%
viability, T/C [10]: 108%
viability, T/C [11]: 101%
viability, T/C [12]: 107%
viability, T/C (second compound 0.1 µM, first compound 3.16 µM): 107%
viability, T/C (second compound 0.1 µM, first compound 10 µM): 104%
viability, T/C [15]: 109%
viability, T/C [16]: 106%
viability, T/C [17]: 105%
viability, T/C [18]: 107%
viability, T/C (second compound 0.316 µM, first compound 3.16 µM): 107%
viability, T/C (second compound 0.316 µM, first compound 10 µM): 93.7%
viability, T/C [21]: 106%
viability, T/C [22]: 104%
viability, T/C [23]: 105%
viability, T/C [24]: 107%
viability, T/C (second compound 1 µM, first compound 3.16 µM): 102%
viability, T/C (second compound 1 µM, first compound 10 µM): 98.5%
viability, T/C [27]: 102%
viability, T/C [28]: 103%
viability, T/C [29]: 99.1%
viability, T/C [30]: 101%
viability, T/C (second compound 3.16 µM, first compound 3.16 µM): 104%
viability, T/C (second compound 3.16 µM, first compound 10 µM): 92.4%
viability, T/C [33]: 97.7%
viability, T/C [34]: 100%
viability, T/C [35]: 103%
viability, T/C [36]: 98.7%
viability, T/C (second compound 10 µM, first compound 3.16 µM): 100%
viability, T/C (second compound 10 µM, first compound 10 µM): 94.8%

CCc1c2c(nc3ccc(O)cc13)-c1cc3c(c(=O)n1C2)COC(=O)[C@]3(O)CC + Nc1ccc(C#CCN(C(=O)Cc2ncc(C(F)(F)F)cc2C(F)(F)F)c2ccc(F)cc2)nn1
IC50 (second compound 0.0316 µM): 27.9 nM
IC50 (second compound 0.1 µM): 26.2 nM
IC50 (second compound 0.316 µM): 31 nM
IC50 (second compound 1 µM): 32.2 nM
IC50 (second compound 3.16 µM): 22.1 nM
IC50 (second compound 10 µM): 14.4 nM
viability, T/C [1]: 99%
viability, T/C [2]: 91.1%
viability, T/C [3]: 45.5%
viability, T/C [4]: 20.1%
viability, T/C [5]: 18.8%
viability, T/C [6]: 26.7%
viability, T/C [7]: 100%
viability, T/C [8]: 88.8%
viability, T/C [9]: 43.3%
viability, T/C [10]: 17.9%
viability, T/C [11]: 19.8%
viability, T/C [12]: 24.8%
viability, T/C [13]: 104%
viability, T/C [14]: 92.2%
viability, T/C [15]: 50.3%
viability, T/C [16]: 20.3%
viability, T/C [17]: 16.8%
viability, T/C [18]: 26.6%
viability, T/C [19]: 102%
viability, T/C [20]: 88.9%
viability, T/C [21]: 52.4%
viability, T/C [22]: 18.4%
viability, T/C [23]: 17.7%
viability, T/C [24]: 25.9%
viability, T/C [25]: 95.6%
viability, T/C [26]: 76.3%
viability, T/C [27]: 39.7%
viability, T/C [28]: 17.4%
viability, T/C [29]: 18.2%
viability, T/C [30]: 27.7%
viability, T/C [31]: 87%
viability, T/C [32]: 63.9%
viability, T/C [33]: 16.1%
viability, T/C [34]: 16.3%
viability, T/C [35]: 20.1%
viability, T/C [36]: 29.6%
